{"source": "patent US8518450B2", "about": "“Nanoparticle carriers for drug administration and process for producing same” (CSIR, priority 2008, dated 2013)", "key": {"[1]": {"test": "Drug incorporation / encapsulation efficiency of INH (UV-Vis)", "assay_type": "physicochemical", "conditions": "spray dried PLGA nanoparticles, PLGA:INH 2:1", "procedure": "The amount of the hydrophilic drug Isoniazid that was entrapped in the particle powder after the nanoencapsulation process was measured in triplicate using a spectrophotometric method (UV-Vis, Thermo Spectronic Heliosα). The encapsulation efficiency of INH in nanoparticles was determined as the mass ratio of the entrapped INH to the theoretical amount of INH used in the preparation. For that, 50 mg of precipitated particles were re-suspended in 20 ml of deionised water, centrifuged (10 000 rpm/10 C/5 min) to remove the un-encapsulated drug and the supernatant was subject to UV-Vis Spectrophotometer, read at λ=262 nm for INH assessment. The encapsulated amount of INH was determined by subtracting INH in the supernatant from total initial INH amount."}, "[2]": {"test": "INH stability assessment using RP-HPLC", "assay_type": "physicochemical", "conditions": "formulation with lactose", "procedure": "The stability of INH spray dried powders was assessed by reverse phase-high performance liquid chromatography-analysis (RP-HPLC) using Shimadzu machine supplied with Photodiode Array (PDA) detector.\nThe following characteristics were applied: a Column Phenomenex [(C18 (5 μm); (250×4.6 mm ID)], a mobile phase of 5% (v/v) acetonitrile with 95% (v/v) buffer NaH2PO4 (pH 6.8), at a flow rate of 1 ml/min and at a temperature of 30° C. The detection was performed using PDA at λ=259 nm, on a total injection volume of 20 μl."}}}
{"smiles": "NNC(=O)c1ccncc1", "note": "[INH, isoniazid]", "values": [{"measurement": "encapsulation efficiency of INH", "setting": "[1]", "result": "~60", "unit": "%"}, {"measurement": "stability of INH in spray dried powders (HPLC)", "setting": "[2]", "result": "degradation of INH"}]}
